Source: patent publication US20080227655A1, “Assessment of effect of an agent on a human biological condition using rodent gene expression panels” (priority 2006, published 2008)
Values joined by “and” are separate entries in the source; they are usually repeats but may differ in a detail not shown here. Equal values may be shown once.

Tested on: custom murine 40-gene Precision Profile for Rheumatoid Arthritis, whole blood
Experiment: Collagen Induced Arthritis (CIA) model, whole blood gene expression by QPCR, vehicle or dexamethasone treatment
Assay type: in vivo, male DBA/1 mice
Procedure: Whole blood gene expression changes were evaluated in vehicle control and drug-treated murine subjects across two murine models of arthritis according to the following arthritis models:
KRN Transgenic Mouse (K/B×N): K/B×N serum from transgenic mouse used to induce arthritis in female BALB/c mice (n=54). Collagen Induced Arthritis (CIA): Bovine type II collagen used to induce arthritis in male DBA/1 mice (n=54).
In addition, naïve, untreated animal groups at baseline and terminal day were included to control for potential age-related changes in gene expression over the extended study periods. Animal groups, time-points, and treatment schedules are summarized in Tables 20A and 20B, respectively.
Whole blood samples from animals were collected by retro-orbital bleed at selected time-points in accordance with the arthritis study schemas described in […], and transferred into sample collection tubes containing a 1.5× lysis solution and RPMI. Samples were processed into total RNA and cDNA. […] It was anticipated from these murine models would provide a better understanding of the relevant molecular response of arthritis induction and their potential correlation to the human disease condition.
Normal murine subject reference values (represented as normalized Ct or ΔCt values) were established for male DBA/1 mice (n=6 for the CIA study arm) and female BALB/c mice (n=6 for the KRN study arm). In both arms of the study, gene expression response of normal (naïve, non-immunized and untreated) murine subjects were evaluated in groups of 6 each at day 0 and day 60 for the CIA study arm, and at day 0 and day 21 for the KRN study arm (see Tables 20A and 20B).
Gene expression responses for this arthritis-induced murine model were evaluated for untreated mice at day 24 and vehicle-treated mice at days 33, 42, and 60 to characterize disease progression.

[1] = CIA Day 42 Treated, group Average
[2] = CIA Day 42 Treated, group Average, whole blood
[3] = CIA Day 42 Treated, individual mice
[4] = CIA Day 42 Treated, individual mice, whole blood
[5] = CIA Day 60 Treated, group Average
[6] = CIA Day 60 Treated, group Average, whole blood
[7] = CIA Day 60 Treated, individual mice
[8] = CIA Day 60 Treated, individual mice, whole blood

## C[C@@H]1C[C@H]2[C@@H]3CCC4=CC(=O)C=C[C@]4(C)[C@@]3(F)[C@@H](O)C[C@]2(C)[C@@]1(O)C(=O)CO [Dexamethasone]
[1]
  CD19_M Normalized CT Value (Delta CT), Average: 17.41
  CD32_M Normalized CT Value (Delta CT), Average: 19.18
  CD86_M Normalized CT Value (Delta CT), Average: 22.86
  CSPG2_M Normalized CT Value (Delta CT), Average: 18.40
  F3_M Normalized CT Value (Delta CT), Average: 24.19
  HMOX1—M Normalized CT Value (Delta CT), Average: 17.42
  HSPA1A—M Normalized CT Value (Delta CT), Average: 22.06
  ICAM1—M Normalized CT Value (Delta CT), Average: 19.40
  IFI16_M Normalized CT Value (Delta CT), Average: 18.56
  IL1A_M Normalized CT Value (Delta CT), Average: 24.26
  IL1B_M Normalized CT Value (Delta CT), Average: 14.10
  IL10_M Normalized CT Value (Delta CT), Average: 25.70
[2]
  Normalized CT (Delta CT) IL1RAP_M: 18.00
  Normalized CT (Delta CT) IL1RN—M: 17.54
  Normalized CT (Delta CT) IL6_M: 24.59
  Normalized CT (Delta CT) JUN_M: 20.13
  Normalized CT (Delta CT) MEF2C—M: 19.65
  Normalized CT (Delta CT) NFKB1—M: 17.40
  Normalized CT (Delta CT) PADI4—M: 17.97
  Normalized CT (Delta CT) PLA2G7—M: 14.89
[3]
  ABCA1_M Normalized CT Value (Delta CT): 19.25 and 19.03 and 20.65 and 19.18 and 18.65 and 19.31
  APAF1_M Normalized CT Value (Delta CT): 20.34 and 19.23 and 20.02 and 18.89 and 19.10 and 20.01
  ARG2_M Normalized CT Value (Delta CT): 18.59 and 17.70 and 18.13 and 17.87 and 17.07 and 18.04
  CASP1_M Normalized CT Value (Delta CT): 19.07 and 17.95 and 20.08 and 18.16 and 18.00 and 18.03
  CASP3_M Normalized CT Value (Delta CT): 18.26 and 18.13 and 18.40 and 18.45 and 17.48 and 17.70
  CCR3_M Normalized CT Value (Delta CT): 19.92 and 18.94 and 19.77 and 19.05 and 19.94
  CD8A_M Normalized CT Value (Delta CT): 19.05 and 19.19 and 19.47 (2×) and 19.54 and 21.24
  CD14_M Normalized CT Value (Delta CT): 18.22 and 17.59 and 18.17 and 17.46 and 16.46 and 17.49
  CD19_M Normalized CT Value (Delta CT): 17.83 and 18.59 and 17.22
  CD32_M Normalized CT Value (Delta CT): 19.54 and 18.75 and 20.05 and 19.32 and 18.31 and 19.12
  CD86_M Normalized CT Value (Delta CT): 22.76 and 21.99 and 24.40 and 22.29 and 22.95 and 22.75
  CSPG2_M Normalized CT Value (Delta CT): 17.53 and 18.70 and 18.64 and 18.36 and 19.59 and 17.59
  F3_M Normalized CT Value (Delta CT): 21.92 and 24.08 and 25.50 and 24.56 and 23.94 and 25.11
  HMOX1—M Normalized CT Value (Delta CT): 15.87 and 17.25 and 18.49 and 17.66 and 17.84 and 17.40
  HSPA1A—M Normalized CT Value (Delta CT): 21.34 and 22.12 and 22.63 and 20.82 and 23.83 and 21.63
  ICAM1—M Normalized CT Value (Delta CT): 18.58 and 19.08 and 19.89 and 19.37 and 20.27 and 19.24
  IFI16_M Normalized CT Value (Delta CT): 17.87 and 17.97 and 18.60 and 18.06 and 20.80 and 18.04
  IL1A_M Normalized CT Value (Delta CT): 24.26
  IL1B_M Normalized CT Value (Delta CT): 13.49 and 14.12 and 14.22 and 14.25 and 14.38 and 14.15
  IL10_M Normalized CT Value (Delta CT): 25.44 (2×) and 25.71 and 25.64 and 25.84 and 26.13
[4]
  Normalized CT (Delta CT) IL1RAP_M: 17.46 and 17.94 and 18.31 and 18.38 and 17.99 and 17.91
  Normalized CT (Delta CT) IL1RN—M: 16.89 and 17.57 and 17.94 and 17.76 and 17.56 and 17.53
  Normalized CT (Delta CT) IL6_M: 24.11 and 25.01 and 23.38 and 25.34 and 25.09
  Normalized CT (Delta CT) JUN_M: 19.54 and 19.51 and 20.43 and 19.81 and 21.67 and 19.83
  Normalized CT (Delta CT) MEF2C—M: 19.72 and 19.12 and 19.89 and 19.47 and 20.04 and 19.64
  Normalized CT (Delta CT) NFKB1—M: 17.25 and 16.83 and 17.27 and 16.97 and 18.81 and 17.26
  Normalized CT (Delta CT) PADI4—M: 17.57 and 18.02 and 17.98 (2×) and 18.35 and 17.91
  Normalized CT (Delta CT) PLA2G7—M: 14.60 and 14.83 and 15.02 and 14.96 and 15.09 and 14.82
[5]
  ABCA1_M Normalized CT Value (Delta CT), Average: 18.01
  APAF1_M Normalized CT Value (Delta CT), Average: 18.94
  ARG2_M Normalized CT Value (Delta CT), Average: 17.62
  CASP1_M Normalized CT Value (Delta CT), Average: 18.09
  CASP3_M Normalized CT Value (Delta CT), Average: 17.44
  CCR3_M Normalized CT Value (Delta CT), Average: 20.02
  CD14_M Normalized CT Value (Delta CT), Average: 17.08
  CD32_M Normalized CT Value (Delta CT), Average: 18.46
  CD86_M Normalized CT Value (Delta CT), Average: 22.22
[6]
  Normalized CT (Delta CT) IL1RAP_M: 18.09
  Normalized CT (Delta CT) IL1RN—M: 17.39
  Normalized CT (Delta CT) IL6_M: 24.58
  Normalized CT (Delta CT) JUN_M: 19.44
  Normalized CT (Delta CT) MEF2C—M: 19.42
  Normalized CT (Delta CT) NFKB1—M: 16.65
  Normalized CT (Delta CT) PADI4—M: 18.36
  Normalized CT (Delta CT) PLA2G7—M: 14.66
[7]
  ABCA1_M Normalized CT Value (Delta CT): 18.15 and 17.43 and 18.02 and 18.03 and 18.50 and 17.95
  APAF1_M Normalized CT Value (Delta CT): 18.90 and 18.40 and 19.28 and 18.97 and 19.36 and 18.75
  ARG2_M Normalized CT Value (Delta CT): 17.69 and 17.21 and 17.86 and 17.73 and 18.48 and 16.78
  CASP1_M Normalized CT Value (Delta CT): 17.78 and 17.53 and 18.19 and 18.75 and 18.66 and 17.61
  CASP3_M Normalized CT Value (Delta CT): 17.72 and 17.06 and 17.22 and 17.97 and 17.46 and 17.18
  CCR3_M Normalized CT Value (Delta CT): 20.33 and 18.57 and 20.17 and 20.39 and 21.29 and 19.38
  CD14_M Normalized CT Value (Delta CT): 17.31 and 16.84 (2×) and 17.24 and 17.32 and 16.92
  CD32_M Normalized CT Value (Delta CT): 18.41 and 17.86 and 18.35 and 18.90 and 18.54 and 18.72
  CD86_M Normalized CT Value (Delta CT): 22.26 and 21.38 and 22.48 and 22.41 and 22.40 and 22.37
[8]
  Normalized CT (Delta CT) IL1RAP_M: 18.11 and 18.37 and 18.06 and 18.23 and 18.26 and 17.51
  Normalized CT (Delta CT) IL1RN—M: 17.45 and 17.37 and 17.66 and 17.72 and 17.62 and 16.51
  Normalized CT (Delta CT) IL6_M: 25.14 and 24.12 and 24.79 and 25.54 and 25.20 and 22.67
  Normalized CT (Delta CT) JUN_M: 19.63 and 19.39 and 19.44 (2×) and 19.07 and 19.67
  Normalized CT (Delta CT) MEF2C—M: 19.42 and 19.06 and 19.35 and 19.73 and 19.55 and 19.41
  Normalized CT (Delta CT) NFKB1—M: 16.72 and 16.41 and 16.30 and 16.95 and 16.80 and 16.73
  Normalized CT (Delta CT) PADI4—M: 18.90 and 18.59 and 18.29 and 18.10 and 18.41 and 17.84
  Normalized CT (Delta CT) PLA2G7—M: 14.78 and 14.34 and 14.76 and 14.77 and 14.96 and 14.35
  Normalized CT (Delta CT), column 9, gene sub-head of this block not shown: 24.31
